In patent publication US11752165B2, “Basic chemotherapeutic intratumour injection formulation” (US NANO FOOD & DRUG, INC., priority 2020, dated 2023):
≈ marks a conversion by molar mass, not a printed value. Entries after “also recorded” stand apart in the source; their conditions may differ. Structures can show the parent of a compound that is named as a salt. Where two headings read alike, the source gives them in different places.

Columns and labels:
[1] = 5 mg/mL aqueous solution; cited from earlier work
[2] = cited from earlier work; for Solubility in water (in words): background statement
[3] = background statement, cited from earlier work
[4] = Solubility in oil, ethanol and other organic liquids; details: for Solubility in ethanol / Solubility in oil: Table 2, yes/no; for Solubility in organic liquids (in words): detailed description
Solubility in water = details: for Solubility in H2O: Table 2, yes/no; for Solubility in water (in words): detailed description
[5] = Stability of the basic (free base) chemical; details: detailed description
[6] = cited from earlier work
[7] = assay type: physicochemical
[8] = background statement; cited from earlier work
mice = details: mouse, in vivo, ip; cited from earlier work
[9] = serum, rapid intravenous injection, patients with cancer

Solubility in water (in words) (Solubility in water)	Stability of the base form (in words) [5]	Compound	Solubility in organic liquids (in words) [4]	Solubility in organic liquids (in words) [3]	Solubility in water (in words) [2]	Stability of the basic chemical (in words) [8]	also measured
–	–	COc1cccc2c1C(=O)c1c(O)c3c(c(O)c1C2=O)C[C@@](O)(C(=O)CO)C[C@@H]3O[C@H]1C[C@H](N)[C@H](O)[C@H](C)O1 [Doxorubicin Hydrochloride]	–	–	–	–	pH of aqueous solution [1]: 4.0-5.5; Solubility in water (in words) ([2]; hydrochloride): soluble in water
practically insoluble in water	unstable at room temperature	CC[C@]1(O)C[C@@H]2CN(CCc3c([nH]c4ccccc34)[C@@](C(=O)OC)(c3cc4c(cc3OC)N(C)[C@H]3[C@@](O)(C(=O)OC)[C@H](OC(C)=O)[C@]5(CC)C=CCN6CC[C@]43[C@@H]65)C2)C1 [Vinblastine]	soluble in alcohol, acetone, chloroform, ethyl acetate	–	–	–	Solubility in organic liquids (in words) ([3]; listed as vinblastine): slightly soluble in an organic liquid; Solubility in ethanol [4]: yes; Solubility in oil [4]: yes; Solubility in H2O (Solubility in water): no; Solubility in water (in words) (Solubility in water; listed as vinblastine base): not soluble in water; Initial half-life [6, 9]: 3.7 min; Middle half-life [6, 9]: 1.6 h; Terminal half-life [6, 9]: 24.8 h; Solubility in water (in words) ([2]; listed as vinblastine): insoluble in water
–	–	CC[C@]1(O)C[C@@H]2CN(CCc3c([nH]c4ccccc34)[C@@](C(=O)OC)(c3cc4c(cc3OC)N(C)[C@H]3[C@@](O)(C(=O)OC)[C@H](OC(C)=O)[C@]5(CC)C=CCN6CC[C@]43[C@@H]65)C2)C1 [Vinblastine sulphate]	–	–	One part is soluble in 10 parts of water	–	Solubility in ethanol ([4]; listed as Vinblastine H2SO4): no; Solubility in oil ([4]; listed as Vinblastine H2SO4): no; Solubility in H2O (Solubility in water; listed as Vinblastine H2SO4): yes; Solubility in water (in words) (Solubility in water; listed as Vinblastine sulfate): soluble in water; Crossing of the blood brain barrier (in words) ([6]; following IV administration): crosses the blood brain barrier poorly
practically insoluble in water	not stable	CC[C@]1(O)C[C@@H]2CN(CCc3c([nH]c4ccccc34)[C@@](C(=O)OC)(c3cc4c(cc3OC)N(C)[C@H]3[C@@](O)(C(N)=O)[C@H](O)[C@]5(CC)C=CCN6CC[C@]43[C@@H]65)C2)C1 [Vindesine]	soluble in alcohol, acetone	slightly soluble in an organic liquid	insoluble in water	unstable	Solubility in ethanol [4]: yes; Solubility in oil [4]: yes; Solubility in H2O (Solubility in water): no
–	–	COc1cccc2c1C(=O)c1c(O)c3c(c(O)c1C2=O)C[C@@](O)(C(=O)CO)C[C@@H]3O[C@H]1C[C@H](N)[C@@H](O)[C@H](C)O1 [Epirubicin hydrochloride]	–	–	–	–	Solubility in water (in words) ([2]; hydrochloride): soluble in water
insoluble in water	–	COc1cccc2c1C(=O)c1c(O)c3c(c(O)c1C2=O)C[C@@](O)(C(=O)CO)C[C@@H]3O[C@H]1C[C@H](N)[C@@H](O)[C@H](C)O1 [epirubicin base, epirubicin]	–	slightly soluble in an organic liquid	insoluble in water	unstable	Solubility in water (Solubility in water): 0.093 mg per ml
–	–	COc1cccc2c1C(=O)c1c(O)c3c(c(O)c1C2=O)C[C@@](O)(C(=O)CO)C[C@@H]3O[C@H]1C[C@H](N)[C@H](O)[C@H](C)O1 [Doxorubicin base, doxorubicin]	slightly soluble alcohols; also recorded: moderately soluble in anhydrous methanol	slightly soluble in an organic liquid	insoluble in water	unstable	pH in water ([7]; 10 mg in 5 ml of water): 7.9
insoluble in water	not stable in base form	COc1cccc2c1C(=O)c1c(O)c3c(c(O)c1C2=O)C[C@@](O)(C(C)=O)C[C@@H]3O[C@H]1C[C@H](N)[C@H](O)[C@H](C)O1 [Daunorubicin base, daunorubicin]	slightly soluble in an organic liquid such as oleic acid, PEG and ethanol	slightly soluble in an organic liquid	insoluble in water	unstable	–
–	–	CC[C@]1(O)C[C@H]2CN(CCc3c([nH]c4ccccc34)[C@@](C(=O)OC)(c3cc4c(cc3OC)N(C=O)[C@H]3[C@@](O)(C(=O)OC)[C@H](OC(C)=O)[C@]5(CC)C=CCN6CC[C@]43[C@@H]65)C2)C1 [Vincristine sulfate]	–	–	freely soluble in water	–	Solubility in ethanol ([4]; listed as Vincristine H2SO4): no; Solubility in oil ([4]; listed as Vincristine H2SO4): no; Solubility in H2O (Solubility in water; listed as Vincristine H2SO4): yes
–	–	C=C1C[C@@H]2CC[C@@]34C[C@H]5O[C@H]6[C@@H](O3)[C@H]3O[C@H](CC[C@@H]3O[C@H]6[C@H]5O4)CC(=O)C[C@@H]3[C@@H](OC)[C@@H](C[C@H](O)CN)O[C@H]3C[C@H]3O[C@@H](CC[C@@H]1O2)C[C@@H](C)C3=C [eribulin]	–	slightly soluble in an organic liquid	insoluble in water	unstable	–
–	–	COc1cccc2c1C(=O)c1c(O)c3c(c(O)c1C2=O)C[C@@](O)(C(C)=O)C[C@@H]3O[C@H]1C[C@H](N)[C@H](O)[C@H](C)O1 [Daunorubicin hydrochloride]	–	–	–	–	Solubility in water (in words) ([2]; hydrochloride): soluble in water

Compound	Solubility in water (in words) (Solubility in water)	Stability of the base form (in words) [5]	Solubility in organic liquids (in words) [4]	Solubility in organic liquids (in words) [3]	Solubility in water (in words) [2]	Stability of the basic chemical (in words) [8]	also measured
O=C1c2c(O)ccc(O)c2C(=O)c2c(NCCNCCO)ccc(NCCNCCO)c21 [Mitoxantrone base, mitoxantrone]	sparingly soluble in water	the basic form is stable	slightly soluble in methanol; also recorded: practically insoluble in acetonitrile chloroform and acetone	slightly soluble in an organic liquid	insoluble in water	–	pH in water ([7]; 25 mg in 10 ml water): 9.42
CC[C@]1(O)C[C@H]2CN(CCc3c([nH]c4ccccc34)[C@@](C(=O)OC)(c3cc4c(cc3OC)N(C=O)[C@H]3[C@@](O)(C(=O)OC)[C@H](OC(C)=O)[C@]5(CC)C=CCN6CC[C@]43[C@@H]65)C2)C1 [Vincristine]	not soluble in water	–	–	soluble in alcohol, acetone, and chloroform	practically insoluble in water	unstable	LD50 (mice): 5.2 mg/kg; Solubility in organic liquids (in words) ([3]; listed as vincristine): slightly soluble in an organic liquid; Solubility in ethanol [4]: yes; Solubility in oil [4]: yes; Solubility in H2O (Solubility in water): no; Solubility in water ([2]; 25° C.): 2.27 µg/mL (≈ 2.75 µM); Solubility in water (in words) ([2]; listed as vincristine): insoluble in water
